Experiment: Stability of dosing formulations in corn oil
Format: physicochemical
From the text: Based on solubility, corn oil (Welsh, Holme & Clark Inc., Newark, NJ, USA) was used as the vehicle for all four PFASs. Gas chromatography (GC) with flame ionization detection (FID) was used for the analysis of the PFNAC, PFHI, and MHFPK formulations, and a high-performance liquid chromatography (HPLC) method with ultraviolet spectroscopy was used for the CTFPA formulation. The details of the dosing solution analytical conditions are summarized in supplemental Tables S1 and S2. These analytical methods were developed specifically for these subchronic toxicity studies. […] Dosing solutions were prepared and replaced between at least every 29 days and no more than every 39 days.
PFNAC, PFHI, and MHFPK were soluble in corn oil up to 67, 200, and 100 mg/mL, respectively. As solubility in aqueous vehicles was 40 mg/mL or less for all three chemicals, corn oil was chosen as the vehicle. PFNAC was stable at the ambient temperature for 51 days at target concentrations of 0.2 and 10 mg/mL PFHI was stable in corn oil at ambient temperatures and target concentrations of 1 and 80 mg/mL for up to 70 days. MFHPK was stable in corn oil at room temperature for up to 44 days at target concentrations of 5 and 100 mg/mL. CTFPA was soluble in both deionized (DI) water and corn oil at 200 mg/mL when stored refrigerated overnight. […] Thus, corn oil was chosen as the vehicle for CTFPA. The stability of the CTFPA in the corn oil was evaluated for 8, 13, 15, 23, 35, and 42 days stored refrigerated in plastic bottles. CTFPA at 40 mg/mL was stable for up to 42 days. CTFPA at 0.6 mg/mL was stable for up to […] when refrigerated in plastic bottles but by 42 days had decreased to approximately 81%.

## C=CC(=O)OCC(F)(F)C(F)(F)C(F)(F)C(F)(F)C(F)(F)C(F)(F)C(F)(F)C(F)F [PFNAC, 1H,1H,9H-Perfluorononyl acrylate]
Ambient temperature, 0.2 and 10 mg/mL
  Stable in corn oil for: 51 days

## CC(=O)C(F)(F)C(F)(F)C(F)(F)F [MHFPK, Methyl heptafluoropropyl ketone]
Room temperature, 5 and 100 mg/mL
  Stable in corn oil for: up to 44 days

## FC(F)(F)C(F)(F)C(F)(F)C(F)(F)CCI [PFHI, 1H,1H,2H,2H-Perfluorohexyl iodide]
Ambient temperatures, 1 and 80 mg/mL
  Stable in corn oil for: up to 70 days

## O=C(O)C(F)(Cl)C(F)(F)F (stereo not drawn) [CTFPA, 2-Chloro-2,3,3,3-tetrafluoropropanoic acid]
0.6 mg/mL, by 42 days, refrigerated
  Concentration remaining in corn oil: approximately 81%
0.6 mg/mL, refrigerated in plastic bottles
  Stable in corn oil for: up to 22 days
40 mg/mL, refrigerated in plastic bottles
  Stable in corn oil for: up to 42 days

From article PMC12298827, “Subchronic Toxicities of Four Per- and Polyfluoroalkyl Substances (PFASs) by Oral Exposure in Sprague–Dawley Rats” (Toxics, 2025)
